Source: patent US8993604B2, “Treatment and prevention of dengue virus infections” (Siga Technologies, Inc., priority 2009, dated 2015)

Tested on: Dengue-2 (Strain New Guinea C)
Experiment: Viral yield assay in Vero cells
Assay type: cell-based
Conditions: Dengue virus; Vero cells, MOI 0.1, harvested 48 hours post infection; read-out: Activity (anti-dengue 2 viral activity, EC50 class)
Experimental: Compounds that were active in the primary screen were tested for activity in viral yield assays. […] Vero cells in 12-well plates were infected with dengue-2 virus at a multiplicity of infection (MOI) of 0.1, treated with compound (or DMSO as a control), incubated at 37° C., harvested 48 hours post infection and titered on Vero cells as described above. The EC50 was calculated through ExcelFit. Activities against other serotypes of dengue virus were determined in a similar way.

SMILES: COc1ccccc1C(=O)Nc1cc(-c2nc3ccccc3s2)ccc1C [Compound 52, N-(5-Benzothiazol-2-yl-2-methyl-phenyl)-2-methoxy-benzamide]
- EC50: > 25 µM

SMILES: O=C(Nc1ccc(O)c(-c2nc3ccccc3s2)c1)c1ccc([N+](=O)[O-])cc1 [Compound 53, N-(3-Benzothiazol-2-yl-4-hydroxy-phenyl)-4-nitro-benzamide]
- EC50: > 25 µM

SMILES: O=C(Nc1ccc(-c2nc3ccccc3s2)c(O)c1)c1ccccc1F [Compound 54, N-(4-Benzothiazol-2-yl-3-hydroxy-phenyl)-2-fluoro-benzamide]
- EC50: > 25 µM

SMILES: Cc1ccccc1C(=O)Nc1ccc(O)c(-c2nc3ccccc3s2)c1 [Compound 55, N-(3-Benzothiazol-2-yl-4-hydroxy-phenyl)-2-methyl-benzamide]
- EC50: > 25 µM

SMILES: O=C(Nc1ccc(O)c(-c2nc3ccccc3s2)c1)c1ccccc1 [Compound 56, N-(3-Benzothiazol-2-yl-4-hydroxy-phenyl)-benzamide]
- EC50: > 25 µM

SMILES: O=C(Nc1ccc(O)c(-c2nc3ccccc3s2)c1)c1ccccc1F [Compound 57, N-(3-Benzothiazol-2-yl-4-hydroxy-phenyl)-2-fluoro-benzamide]
- EC50: > 25 µM

SMILES: COc1cccc(C(=O)Nc2ccc(O)c(-c3nc4ccccc4s3)c2)c1 [Compound 58, N-(3-Benzothiazol-2-yl-4-hydroxy-phenyl)-3-methoxy-benzamide]
- EC50: > 25 µM

SMILES: O=C(Nc1ccc(-c2nc3ccccc3s2)c(O)c1)c1ccccc1 [Compound 59, N-(4-Benzothiazol-2-yl-3-hydroxy-phenyl)-benzamide]
- EC50: > 25 µM

SMILES: COc1ccc(C(=O)Nc2ccc(-c3nc4ccccc4s3)c(O)c2)cc1[N+](=O)[O-] [Compound 60, N-(4-Benzothiazol-2-yl-3-hydroxy-phenyl)-4-methoxy-3-nitro-benzamide]
- EC50: > 25 µM

SMILES: O=C(Nc1ccc(O)c(-c2nc3ccccc3s2)c1)c1ccc(F)cc1 [Compound 61, N-(3-Benzothiazol-2-yl-4-hydroxy-phenyl)-4-fluoro-benzamide]
- EC50: > 25 µM

SMILES: O=C(Nc1ccc(O)c(-c2nc3ccccc3s2)c1)c1cccc(F)c1 [Compound 62, N-(3-Benzothiazol-2-yl-hydroxy-phenyl)-3-fluoro-benzamide]
- EC50: > 25 µM

SMILES: Cc1c(NC(=O)c2cc([N+](=O)[O-])ccc2Cl)cccc1-c1nc2ccccc2s1 [Compound 63, N-(3-Benzothiazol-2-yl-2-methyl-phenyl)-2-chloro-5-nitro-benzamide]
- EC50: > 25 µM

SMILES: COc1ccc(C(=O)Nc2cccc(-c3nc4ccccc4s3)c2C)cc1[N+](=O)O [Compound 64, N-(3-Benzothiazol-2-yl-2-methyl-phenyl)-4-methoxy-3-nitro-benzamide]
- EC50: > 25 µM

SMILES: Cc1c(NC(=O)c2ccc([N+](=O)[O-])cc2)cccc1-c1nc2ccccc2s1 [Compound 65, N-(3-Benzothiazol-2-yl-2-methyl-phenyl)-4-nitro-benzamide]
- EC50: > 25 µM

SMILES: Cc1c(NC(=O)c2ccccc2F)cccc1-c1nc2ccccc2s1 [Compound 66, N-(3-Benzothiazol-2-yl-2-methyl-phenyl)-2-fluoro-benzamide]
- EC50: > 25 µM

SMILES: O=C(Nc1cc(-c2nc3ccccc3s2)ccc1Cl)c1ccccc1[N+](=O)[O-] [Compound 67, N-(5-Benzothiazol-2-yl-2-chloro-phenyl)-2-nitro-benzamide]
- EC50: > 25 µM

SMILES: Cc1ccc(-c2nc3ccccc3s2)cc1NC(=O)c1ccccc1[N+](=O)O [Compound 68, N-(5-Benzothiazol-2-yl-2-methyl-phenyl)-2-nitro-benzamide]
- EC50: > 25 µM

SMILES: COc1cc(C(=O)Nc2cccc(-c3nc4ccccc4s3)c2C)cc(OC)c1OC [Compound 69, N-(3-Benzothiazol-2-yl-2-methyl-phenyl)-3,4,5-trimethoxy-benzamide]
- EC50: > 25 µM

SMILES: COc1cc(C(=O)Nc2cc(-c3nc4ccccc4s3)ccc2Cl)cc(OC)c1OC [Compound 70, N-(5-Benzothiazol-2-yl-2-chloro-phenyl)-3,4,5-trimethoxy-benzamide]
- EC50: > 25 µM

SMILES: Cc1ccccc1C(=O)Nc1cc(-c2nc3ccccc3s2)ccc1Cl [Compound 71, N-(5-Benzothiazol-2-yl-2-chloro-phenyl)-2-methyl-benzamide]
- EC50: > 25 µM

SMILES: O=C(Nc1ccc(O)c(-c2nc3ccccc3s2)c1)c1ccc2c(c1)OCCO2 [Compound 72, 2,3-Dihydro-benzo[1,4]dioxine-6-carboxylic acid (3-benzothiazol-2-yl-4-hydroxy-phenyl)-amide]
- EC50: > 25 µM

SMILES: Cc1c(NC(=O)c2ccc([N+](=O)[O-])cc2Cl)cccc1-c1nc2ccccc2s1 [Compound 73, N-(3-Benzothiazol-2-yl-2-methyl-phenyl)-2-chloro-4-nitro-benzamide]
- EC50: > 25 µM

SMILES: CCCOc1cccc(C(=O)Nc2cc(-c3nc4ccccc4s3)ccc2C)c1 [Compound 74, N-(5-Benzothiazol-2-yl-2-methyl-phenyl)-3-propoxy-benzamide]
- EC50: > 25 µM

SMILES: Cc1ccc(-c2nc3ccccc3s2)cc1NC(=O)c1ccc2c(c1)OCCO2 [Compound 75, 2,3-Dihydro-benzo[1,4]dioxine-6-carboxylic acid (5-benzothiazol-2-yl-2-methyl-phenyl)-amide]
- EC50: > 25 µM

SMILES: O=C(Nc1ccc(-c2nc3ccccc3s2)cc1)c1cccc(F)c1 [Compound 76, N-(4-Benzothiazol-2-yl-phenyl)-3-fluoro-benzamide]
- EC50: > 25 µM

SMILES: COc1c(Cl)cc(C(=O)Nc2cc(-c3nc4ccccc4s3)ccc2Cl)cc1Cl [Compound 77, N-(5-Benzothiazol-2-yl-2-chloro-phenyl)-3,5-dichloro-4-methoxy-benzamide]
- EC50: > 25 µM

SMILES: Cc1c(C(=O)Nc2ccc(-c3nc4ccccc4s3)c(O)c2)cccc1[N+](=O)[O-] [Compound 78, N-(4-Benzothiazol-2-yl-3-hydroxy-phenyl)-2-methyl-3-nitro-benzamide]
- EC50: > 25 µM

SMILES: O=C(Nc1ccc(-c2nc3ccccc3s2)cc1)c1c(F)cccc1F [Compound 79, N-(4-Benzothiazol-2-yl-phenyl)-2,6-difluoro-benzamide]
- EC50: > 25 µM

SMILES: CC(=O)Nc1ccc(C(=O)Nc2ccc(-c3nc4ccc(C)cc4s3)cc2)cc1 [Compound 80, 4-Acetylamino-N-[4-(6-methyl-benzothiazol-2-yl)-phenyl]-benzamide]
- EC50: > 25 µM

SMILES: COC(=O)c1cc(C(=O)Nc2ccc(-c3nc4ccc(C)cc4s3)cc2)cc([N+](=O)O)c1 [Compound 81, N-[4-(6-Methyl-benzothiazol-2-yl)-phenyl]-5-nitro-isophthalamic acid methyl ester]
- EC50: > 25 µM

SMILES: N#Cc1ccc(C(=O)Nc2ccc(Cl)c(-c3nc4ccccc4s3)c2)c(F)c1 [Compound 82, N-(3-Benzothiazol-2-yl-4-chloro-phenyl)-4-cyano-2-fluoro-benzamide]
- EC50: > 25 µM

SMILES: O=C(Nc1cccc(-c2nc3ccccc3s2)c1)c1ccccc1I [Compound 83, N-(3-Benzothiazol-2-yl-phenyl)-2-iodo-benzamide]
- EC50: > 25 µM

SMILES: COc1ccc(C(=O)Nc2cccc(-c3nc4ccccc4s3)c2)cc1[N+](=O)[O-] [Compound 84, N-(3-Benzothiazol-2-yl-phenyl)-4-methoxy-3-nitro-benzamide]
- EC50: > 25 µM

SMILES: Cc1cc(C(=O)Nc2ccc(-c3nc4ccccc4s3)cc2)ccc1[N+](=O)[O-] [Compound 85, N-(4-Benzothiazol-2-yl-phenyl)-3-methyl-4-nitro-benzamide]
- EC50: > 25 µM
